How the values were obtained:
MCF-10A cells [1] = test: MTT cell proliferation assay; type: cell-based, human; settings: 24 h of incubation, read-out: IC50 ±SEM MCF-10A
Protocol: (§1) MDA-MB-231 human breast tumor cells and MCF7 human breast tumor cells, obtained from Rio de Janeiro Cell Bank, were maintained at 37°C in 5% CO2 in DMEM medium containing fetal bovine serum (FBS) 10% (Vitrocell). MCF-10A, a non-tumor breast cell line, obtained from Rio de Janeiro Cell Bank, was cultivated in DMEM/F12 medium containing horse serum (HS) 5%, EGF (0.02 mg/mL); hydrocortisone (0.05 mg/mL); cholera toxin (0.001 mg/mL) and insulin (0.01 mg/mL). Both media contained penicillin (100 UI/mL), streptomycin ([…]) and L-glutamine (2 mM).
(§2) Proliferation assays were performed as described earlier. Briefly, cells lines were prepared in a concentration of 1x10^4 cells/100 μL, in complete medium (with 10% FBS), and plated on sterile 96-well plates for 24 h. The culture medium was removed from the wells and a new one, supplemented with 10% FBS and containing different concentrations of (1) [Ru(SO4)(dppb)(bipy)] (2) [Ru(CO3)(dppb)(bipy)], (3), [Ru(C2O4)(dppb)(bipy)], or (4) [Ru(CH3CO2)(dppb)(bipy)]PF6, was added to the wells. Cells were incubated for 24 h under the same conditions as described above. Cell proliferation assay was performed in comparison with untreated control. After incubation, the culture medium of each well was removed and a solution containing MTT (1 mg/mL) was added (100 μL/well). The plates were then kept at 37°C for 4 h and the formed crystals were dissolved in DMSO. The absorbance was read on an ELISA plate reader at a wavelength of 540 nm. […] The selectivity index (SI) was calculated as the ratio IC50 (MCF-10A) / IC50 (MDA-MB-231).
(§3) Each experiment was repeated three times in triplicate and a standard error mean was calculated. Shapiro-Wilk’s test was used to verify data normality. As normal distribution was present, the results were compared statistically with a one-way or two-way analysis of variance (ANOVA). […] The data were analysed and IC50 calculations were made using Hill’s equation in the GraphPad Prism software (version 6.05).

MCF-7 cells [2] = test: MTT cell proliferation assay; type: cell-based, human; settings: 24 h of incubation, read-out: IC50 ±SEM MCF-7
Protocol: as §1, §2, §3

MDA-MB-231 cells [3] = test: MTT cell proliferation assay; type: cell-based, human; settings: 24 h of incubation, read-out: IC50 ±SEM MDA-MB-231
Protocol: as §1, §2, §3

MCF-10A cells [4] = test: Cell morphology (inverted microscope); type: cell-based, human; settings: 24 h; for effect on cell morphology: 25 and 50 μM
Protocol: (§4) Exponentially growing MDA-MB-231, MCF-7 or MCF-10A cells were harvested, counted and seeded (1x10^5 cells/mL) and plated on sterile 12-well plates for 24 h. Cells were allowed to grow at 37°C in 5% CO2 overnight and then, treated or not (control) with different concentrations of the complexes (1–4) for 2 and 24 h. Cell morphology was examined under an inverted microscope (Nikon, T5100) with amplification of 100×.
(§5) In this work the cytotoxicity of the complexes was evaluated against the MDA-MB-231, MCF-7 and MCF-10A cells by morphology, clonogenic and MTT assays (Fig 2, Table 1). To investigate the effects on cell morphology, the complexes were incubated with cells at concentrations of 25 and 50 μM for 24 h.

MCF-7 cells [5] = test: Cell morphology (inverted microscope); type: cell-based, human; settings: MCF-7, 25 and 50 μM, 24 h
Protocol: as §4, §5

MDA-MB-231 cells [6] = test: Cell morphology (inverted microscope); type: cell-based, human; settings: 24 h
Protocol: as §4, §5

[7] = Water-octanol partition coefficient (stir-flask method); type: physicochemical; settings: 24 h shaking, 37°C
Protocol: The water-octanol partition coefficients were determined by use of the stir-flask method. The complex was added in a mixture with equal volumes of water and octanol shaking by 24 h at 100 rpm and 37°C, samples were centrifuged for 5min at 300rpm, the organic and aqueous phases were separated. The concentration of drug in each phase was measured spectrophotometrically in order to determine values of P = [drug] (in octanol)/[drug] (in water).

HSA = HSA (Homo sapiens, UniProt P02768); test: HSA tryptophan fluorescence quenching; type: binding; settings: for ΔS (HSA): complex-HSA system
Protocol: For fluorescence measurements, the HSA concentration in Tris–HCl buffer was kept constant in all the samples, while the complex concentration was increased from 0.50 to 50 μM, and quenching of the emission intensity of the HSA tryptophan residues at 305 nm (excitation wavelength 270 nm) was monitored at different temperatures (25°C and 37°C). The experiments were carried out in triplicate and analysed using the classical Stern-Volmer equation. The binding constant (Kb) and number of complexes bound to HSA (n) were determined by plotting the double log graph of the fluorescence data using: log [(F0-F)/F] = log Kb + nlog[Q]. The thermodynamic parameter (ΔH) was calculated from equation: ln (K2/K1) = [(1/T1)-(1/T2)]ΔH/R, where K1 and K2 are the binding constants at temperatures T1 and T2, and R is the gas constant. Furthermore, the change in free energy (ΔG) and entropy (ΔS) were calculated from the following equation: ΔG = -RT lnK = ΔH − TΔS.
Human serum albumin (HSA) is the most abundant protein in the blood and cerebrospinal fluid and plays a fundamental role in the distribution of essential transition metal ions in the human body. Moreover, HSA is an important physiological transporter of the essential metal ions Cu^2+, and Zn^2+ in the bloodstream. […] The fluorescence spectrum is essentially that of tryptophan residue; contribution of tyrosine is relatively minor. In order to determine the protein binding affinity of complexes (1–4), tryptophan emission quenching experiments were carried out by adding the complexes in increasing concentration (0–50 μM) to HSA at two different temperatures and following the decrease in fluorescence intensities (Fig 6D). The results point out a good linearity at the two different temperatures. The binding constants, KSV, calculated from the Stern-Volmer equation are presented on Table 2.

DNA = tested on: DNA; set-up: method as in not given; settings: order of magnitude reported for classical intercalators; ref not given; cited from earlier work
pBR322 plasmid DNA = test: Agarose gel electrophoresis of plasmid DNA; type: binding; settings: Ri 0.50, 18 h, 37°C
Protocol: Ten microliters of pBR322 plasmid DNA in a Tris-HCl buffer were incubated at 37°C for 18 h with molar ratios between 0.12 and 0.5. After incubation, 5 μL of each sample was separated by electrophoresis in a 1% agarose gel for 45 min at 100V using a Tris borate–EDTA buffer (TBE) and stained with ethidium bromide ([…] ethidium bromide per 40 mL agarose gel mixture). Samples of DNA with DMSO were used as controls. The DNA bands were visualized as an image using a UV light transilluminator (ChemiDoc MP, BioRad Laboratories).
The influence of the compounds on the tertiary structure of DNA was determined by their ability to modify the electrophoretic mobility of forms of pBR322 plasmid DNA (Fig 6C). Agarose gel electrophoresis was performed using pBR322 plasmid DNA in the absence and presence of the complexes. […] In Ri 0.12 and 0.25 complexes (1–3) show the corresponding open circular, linear and super coiled form. […] This means that the degree of super helicity of the DNA molecules has been altered, in the same way as that described previously for other coordination platinum(II) and palladium (II) compounds containing 7-azaindolyl ligand [36].

Chain of HSA (P02768 25-609): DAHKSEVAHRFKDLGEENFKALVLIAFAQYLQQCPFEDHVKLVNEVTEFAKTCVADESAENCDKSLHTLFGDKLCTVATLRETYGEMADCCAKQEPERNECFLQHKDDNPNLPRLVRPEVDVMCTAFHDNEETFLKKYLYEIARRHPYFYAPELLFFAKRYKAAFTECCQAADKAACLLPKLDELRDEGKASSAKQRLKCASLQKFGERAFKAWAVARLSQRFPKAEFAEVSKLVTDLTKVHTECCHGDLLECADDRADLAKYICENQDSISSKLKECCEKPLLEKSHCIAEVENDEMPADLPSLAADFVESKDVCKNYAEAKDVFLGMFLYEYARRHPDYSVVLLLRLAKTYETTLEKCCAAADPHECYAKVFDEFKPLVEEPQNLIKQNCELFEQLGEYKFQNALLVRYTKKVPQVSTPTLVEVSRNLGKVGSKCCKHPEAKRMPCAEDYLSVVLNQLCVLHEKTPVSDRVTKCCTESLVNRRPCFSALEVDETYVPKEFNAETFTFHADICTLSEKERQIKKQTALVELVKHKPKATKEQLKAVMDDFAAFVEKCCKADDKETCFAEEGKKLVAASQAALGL

Row | Molecule | IC50 (MCF-10A cells [1]) [µM] | IC50 (MCF-7 cells [2]) [µM] | IC50 (MDA-MB-231 cells [3]) [µM] | effect on cell morphology (MCF-10A cells [4]) | effect on cell morphology (MCF-7 cells [5]) | effect on cell morphology (MDA-MB-231 cells [6]; MDA-MB-231, 25 and 50 μM) | Log P [7] | Kq (HSA) (HSA; T 298) [M⁻¹ s⁻¹] | Ksv (HSA) (HSA; T 298) | n (number of binding sites, HSA) (HSA; T 298) | Kq (HSA) (HSA; T 310) [M⁻¹ s⁻¹] | Ksv (HSA) (HSA; T 310) | n (number of binding sites, HSA) (HSA; T 310) | ΔS (HSA) (HSA) [J.mol^-1K] | effect on cell morphology / cell density (MCF-10A cells [4]; 50 μM) | DNA binding constant (DNA) | effect on cell morphology (MDA-MB-231 cells [6]; MDA-MB-231, 50 μM) | electrophoretic mobility of super coiled pBR322 band (pBR322 plasmid DNA)
1 | N.N.[Cl][Pt][Cl] [Cisplatin, reference compound] | 29.4 ± 0.85 | 79.18 ± 0.2 | 2.43 ± 0.2 | – | – | – | – | – | – | – | – | – | – | – | – | – | – | –
2 | O=S(=O)([O-])[O-].[Ru+2].c1ccc(-c2ccccn2)nc1.c1ccc(P(CCCCP(c2ccccc2)c2ccccc2)c2ccccc2)cc1 [Complex (1), [Ru(SO4)(dppb)(bipy)]] | 42.8 ± 5.02 | > 200 | > 200 | altered the morphology | did not alter the morphology | did not alter the morphology | 0.26 ± 0.06 | 5.26e+13 | 5.04 ± 0.09 x10^4 M^-1 | 1.10 | 4.65e+13 | 4.45 ± 0.18 x10^4 M^-1 | 1.06 | 72.70 | – | – | – | –
3 | O=C([O-])C(=O)[O-].[Ru+2].c1ccc(-c2ccccn2)nc1.c1ccc(P(CCCCP(c2ccccc2)c2ccccc2)c2ccccc2)cc1 [Complex (3), [Ru(C2O4)(dppb)(bipy)]] | 42.2 ± 2.37 | > 200 | > 200 | – | did not alter the morphology | did not alter the morphology | 0.06 ± 0.008 | 1.63e+13 | 1.56 ± 0.13 x10^4 M^-1 | 0.90 | 1.702e+13 | 1.63 ± 0.10 x10^4 M^-1 | 0.85 | 80.00 | reduced cell density | – | – | –
4 | [Cl-].[Cl-].[Ru+2].c1ccc(-c2ccccn2)nc1.c1ccc(P(CCCCP(c2ccccc2)c2ccccc2)c2ccccc2)cc1 [Precursor, cis-[RuCl2(dppb)(bipy)], reference compound] | 81.9 ± 7.87 | > 200 | > 200 | – | – | – | -0.40 ± 0.01 | – | – | – | – | – | – | – | – | – | – | –
5 | CC[n+]1c(-c2ccccc2)c2cc(N)ccc2c2ccc(N)cc21 [ethidium bromide] | – | – | – | – | – | – | – | – | – | – | – | – | – | – | – | 10^6 to 10^7 M^-1 | – | –
6 | [Ru(CO3)(dppb)(bipy)] [Complex (2)] | 31.5 ± 1.06 | > 200 | 52.7 ± 0.62 | did not alter the morphology | did not alter the morphology | – | 0.55 ± 0.02 | 2.935e+13 | 2.81 ± 0.12 x10^4 M^-1 | 1.00 | 3.425e+13 | 3.28 ± 0.14 x10^4 M^-1 | 0.98 | 85.80 | – | – | profoundly altered their morphology | increased the electrophoretic mobility
7 | [Ru(phen)2(dppz)]^2+ | – | – | – | – | – | – | – | – | – | – | – | – | – | – | – | 10^6 to 10^7 M^-1 | – | –

— PMC5595280, “Cytotoxicity and anti-tumor effects of new ruthenium complexes on triple negative breast cancer cells” (PLoS ONE, 2017)
